Test system: cortical septin structures in MV3 cells
Assay: Cortical septin localization (SEPT6-GFP) in MV3 cells
Type: cell-based, human
Details: MV3 SEPT6-GFP; WGA (50 ug/ml), VitroGel, H1152 (1 μM), NSC668394 (10 μM)
Description: Cells Embedded in 3D Collagen.
Cells Grown in VitroGel Coffins. VitroGel coffins were prepared by embedding MV3 or A375 cells in VitroGel 3D or RGD at 1:1 dilution according to manufacturer's instructions (TheWell Biosciences, sku #TWG001). […] A 1:1 solution of VitroGel and VitroGel Dilution Solution was made and added to cell suspension at a ratio of 4:1 (VitroGel: cells) using gentle pipetting until well-mixed (with care taken not to form bubbles). Cell/VitroGel solution was transferred to an 8-well uncoated ibidi μ-slide (ibidi cat #80821) at 100 μl/well, spread over the bottom of wells with a pipette tip, and allowed to polymerize at room temperature for 15 minutes. The remainder of the well was then filled with 10% FBS DMEM and slide was stored at 37° C. and 5% CO2 for either 24 hrs for viability assays, 3 hrs for ERK activity assays, or 1 hour for visualization of septins/PI3K activity.
3D Light-Sheet Imaging. […] All images were saved in the OME-TIFF format.
3D Cell Image Analysis. Cell morphology and septin localization were analyzed principally via u-shape3D similar to the protocol described in Driscoll et al. Nature Methods. 16, 1037-1044 (2019), the disclosure of which is incorporated herein in its entirety. Briefly, 3D images were first deconvolved using either a Richardson-Lucy or Wiener algorithm with an experimentally measured point spread function. […] Cell surfaces were then represented as triangle meshes, and the mean surface curvature at every triangle was calculated according to methods described in Driscoll et al. Nature Methods. […] Septin and NRAS localization was measured from fluorescence images by extending a sphere of either 1 μm (for septins) or 2 μm (for NRAS) about each mesh triangle and mapping to the triangle the average intensity both within that sphere and the cell. Image intensity was not depth normalized prior to analysis, but was instead measured from the raw, undeconvolved image. […]
Cortical septin levels were quantified by measuring the mean cytoplasmic intensity of each cell using hand-drawn ROIs that excluded nuclei (performed with the FIJI ImageJ package), and then calculating for each cell its fraction of cortical voxels (intracellular voxels within 0.96 μm of the u-Shape3D-derived surface) that were higher than that cell's mean cytoplasmic intensity (performed using a MATLAB script). NRAS enrichment at the surface was quantified by first calculating the total amount of intracellular signal expected to be within 0.96 μm of the surface if the cell's signal was homogenously distributed between all voxels, and then calculating the percent change between this value and the observed value for each cell. […]

Cc1cncc2cccc(S(=O)(=O)N3CCCNC[C@@H]3C)c12 [H1152]
septin localization (cortical levels): pronounced effects on septin localization, reducing cortical levels
